The values below come from patent US20030060485A1, “(+)-norcisapride” (priority 1997, published 2003).

Read-outs that look alike come from different tables or passages of the source.

In one series the target is T1, 5-HT3 receptor (Cavia porcellus, UniProt O70212).
T1 construct: from tissue; host or cells: guinea-pig ileum segments in organ bath
T1 sequence (O70212 24-490 limits assumed): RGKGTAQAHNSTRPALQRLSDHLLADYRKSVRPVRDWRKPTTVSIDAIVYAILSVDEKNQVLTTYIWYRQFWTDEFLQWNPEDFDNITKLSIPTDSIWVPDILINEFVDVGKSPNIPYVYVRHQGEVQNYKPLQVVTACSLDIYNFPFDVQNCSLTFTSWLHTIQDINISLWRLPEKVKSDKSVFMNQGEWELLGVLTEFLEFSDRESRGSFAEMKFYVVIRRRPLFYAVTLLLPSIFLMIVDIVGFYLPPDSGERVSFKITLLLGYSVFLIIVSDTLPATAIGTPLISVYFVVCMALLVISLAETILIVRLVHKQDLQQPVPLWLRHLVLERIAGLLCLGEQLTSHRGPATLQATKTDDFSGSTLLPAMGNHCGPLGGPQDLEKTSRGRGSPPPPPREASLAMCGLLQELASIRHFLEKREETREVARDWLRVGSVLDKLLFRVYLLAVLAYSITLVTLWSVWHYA
In words: 5-hydroxykynuramine antagonism on the guinea-pig ileum. Particulars: guinea-pig ileum segments; 5-OH-K 3.10^-6 M; read-out: IC50 reducing the 5-OH-K induced effect by 50%. Type of series: cell-based, Guinea pigs. As to the method:
Since 5-OH—K (5-hydroxykynuramine) is a specific agonist at the 5-HT3 receptor, this test evaluates the potential 5-HT3 antagonistic effects.
Guinea pigs of both sexes, body weight±450 g, were killed by decapitation. Non-terminal, (distal 10 cm discarded), intact ileum segments, strips were cleansed, 4.5 cm long, were vertically suspended with a preload of 0.75 g in an 100 ml bath for isotonic recording; [(Displacement Transducer Control Unit; Janssen Scientific Instrument Division), HP7 DGDT-1000 (Hewlett-Packard CY)]. The organ bath was filled with a Tyrode solution, (37.5° C.), gassed with a mixture of 95% O2 and 5% CO2. After a stabilisation period of 20 minutes, methacholine (3.10^−6 M, 30 seconds contacttime) was added to the bathfluid in order to evaluate the potential maximal contraction, whereafter the bathfluid was refreshed, Subsequently, the serotonin agonist 5-OH-K (30 seconds contact time) was added (final concentration 3.10^−6 M) at intervals of 10 minutes, the bath fluid being refreshed 30 seconds after each addition. After reaching reproducible contractile effects, a single dose of the test compound was added to the bath fluid followed 5 minutes later by addition of 5-OH—K. After establishing the log concentration-responds curve of the test compound, IC50 values reducing the 5-OH—K induced effect by 50% were calculated by linear regression analysis.

The subject of series [1] is guinea-pig colon ascendens. As to the kind of experiment: Guinea-pig colon coaxial stimulation. Particulars: Cavia porcellus; guinea-pig colon ascendens segments; read-out: EC50 (concentration that stimulates the maximal tone effect by 50%). Format: cell-based, Guinea-pigs. Here is the method:
Guinea-pigs of both sexes (body weight±450 g), were killed by decapitation. The colon ascendens was removed and rinsed, whereafter segments of approximately 3 cm length were prepared. These strips were suspended in an organ bath (100 ml) and connected to an isotonic transducer under a preload of 2 g; [Displacement Transducer Control Unit (Janssen Scientific Instrument Division); HP 7 DGDT 1000 (Hewlett-Packard)]. The organ bath was filled with a DeJalon solution (37.5° C.), gassed with a mixture of 95% O2 and 5% CO2. After a stabilization period of 20 minutes, methacholine 3.10^−6 M was added to the bathfluid in order to evaluate the potential maximal effect of the strip (contact time 30 seconds); thereafter, the bathfluid was refreshed. This was repeated at intervals of 10 minutes until a reproducible answer was obtained after addition of methacholine. Thereafter, the test compound was added for 10 minutes. Afterwards, without refreshing the bathfluid, cisapride 3.10^−7 M was added to evaluate a possible 5HT4 effect. When the contraction, caused by cisapride obtained a stable maximal level, methacholine 3.10^−6 M to evaluate a potential anti-cholinergic effect, was added to the bath fluid until a maximal contraction was obtained. The EC50 (i.e. the concentration that stimulates the maximal tone effect by 50%) of a compound, was calculated using linear regression analysis.

The test system of series [2] is α-adrenergic (norepinephrine challenge). In words: Apomorphine, tryptamine, norepinephrine (ATN) test in rats: norepinephrine challenge. Type of series: in vivo. Particulars: Rattus norvegicus, subcutaneous pretreatment. From the text:
(§1) The absence of central dopamine antagonistic and serotonin antagonistic activity of the subject compounds is evidenced by the experimental data obtained in the combined apomorphine (APO), tryptamine (TRY) and norepinephrine (NOR) test in rats. Said combined apomorphine, tryptamine and norepinephrine test is described in Arch. Int. Pharmacodyn., 227, 238-253 (1977) and provides an empirical evaluation of the relative specificity with which drugs may effect particular neurotransmitter systems centrally (CNS) as well as peripherally. […] Central dopamine antagonism is evaluated by challenging rats, subcutaneously pretreated with different doses of the test compound, with apomorphine which is a dopamine agonist. Next, serotonin antagonism is evaluated by challenging the same rats, subcutaneously pretreated with different doses of the test compound, with tryptamine which is an agonist at serotonin 5HT2-receptors. Both central and peripheral serotonin antagonism can be assessed in this test. Centrally acting serotonin antagonists are potential antipsychotic drugs, in particular when simultaneously displaying dopamine antagonism in the first part of this test. Finally, α-adrenergic antagonistic activity of the test compounds is evaluated by challenging the same rats, subcutaneously pretreated with different doses of the test compound, with norepinephrine which is an a-adrenergic agonist. […]

The test system of series [3] is MgSO4-induced intestinal lavage. As to the kind of experiment: MgSO4 induced intestinal lavage in dogs. Format: in vivo, Beagle dogs. Particulars: Canis lupus familiaris, p.o., 1 hour before magnesium sulphate challenge. As to the method:
Beagle dogs (of both sexes and varying in body weight, 16 hours deprived from food) were orally pretreated with (+)-norcisapride or solvent and challenged 1 hour later with an oral administration of magnesium sulphate (MgSO4.7H2O, 64g/l, 0.26M; 200 ml). The onset of MgSO4-induced intestinal lavage was assessed over a period of 4 hours after challenge. Liquid stools within 4 hours occured almost never in control animals treated with distilled water (2.5% false positives; n=200) and were considered to reflect significant acceleration of the MgSO4-induced intestinal lavage. Doses in the active dose range were given to five animals each, tested in separate experimental sessions including solvent-treated control animals. All-or-none criteria, based on the distribution of the results obtained in a large number of solvent-treated animals, were used to calculate ED50-values (effective dose) and 95% confidence limits according to Finney's iterative method (Finney, 1962).

Series [4] relates to serotonin 5HT2-receptors (tryptamine challenge). As to the kind of experiment: Apomorphine, tryptamine, norepinephrine (ATN) test in rats: tryptamine challenge. Format: in vivo. The following applies: subcutaneous pretreatment.
Description: as §1

Series [5] relates to guinea-pig ileum longitudinal muscle layer with myenteric plexus. In words: Guinea-pig ileum coaxial stimulation. Format: cell-based, Dunkin-Hartley guinea-pigs. The following applies: Cavia porcellus; guinea-pig ileum strips, electrical stimulation 0.1 Hz, 1 ms, submaximal; read-out: EC50 (concentration that stimulates the response to electrical stimulation by 50%). From the text:
Dunkin-Hartley guinea-pigs of either sex (weighing between 600-900 g) were killed by decapitation. The ileum was removed and cleansed with warmed and oxygenated Krebs-Henseleit solution. Parts of the ileum (15 cm) were slipped over a glass pipette. The longitudinal muscle layer with myenteric plexus was removed by means of a cotton thread moistened with Krebs solution. Strips with a length of 8 cm were folded and these strips (4 cm) were mounted between two platinum electrodes (8 cm length, 0.5 cm apart). The strips were suspended with a preload of 1.5 g in 100 ml Krebs-Henseleit solution (37.5° C.), gassed with a mixture of 95% O2 and 5% CO2. The preparations were excited with single rectangular stimuli [1 ms; 0.1 Hz; submaximal response (current leading to 80% of maximal response), from a programmable stimulator (Janssen Scientific Instruments Division)]. Contractions were measured isometrically (Statham UC2, Janssen Scientific Instruments amplifier, Kipp BD-9 pen-recorder). During the stabilization period of 30 minutes, the strips were repeatedly stretched, in order to obtain a steady state tension of 1.5 g. Before starting the electrical stimulation, a cumulative concentration response curve of acetylcholine (3.10^−9, 10^−8, 3.10^−8 and 10^−7 M) was given. The bath fluid was replaced with fresh Krebs solution and the strips were allowed to stabilize for another 30 minutes. […]

For series [6], the system named is central dopamine antagonism (apomorphine challenge). As to the kind of experiment: Apomorphine, tryptamine, norepinephrine (ATN) test in rats: apomorphine challenge. Type of series: in vivo. The following applies: Rattus norvegicus, subcutaneous pretreatment, central dopamine antagonistic activity.
Description: as §1

For series [7] the following is noted: following oral administration; cited from earlier work.

Broadly, the IC50 is the concentration needed to halve the response being measured. For orientation: ED50 means the dose at which the effect has come halfway, by size or by number of responders.

For `COc1cc(N)c(Cl)cc1C(=O)N[C@@H]1CCNC[C@@H]1OC` (stereo in doubt) [Compound 1, (+)-cis-4-amino-5-chloro-2-methoxy-N-(3-methoxy-4-piperidinyl)benzamide], the IC50 at 5-HT3 receptor was 0.093 µM. The EC50 in series [1] was 1.9 µM; in series [5], 0.6 µM. Also, the ED50 in series [2] was over 40 mg/kg; in series [3] (liquid stools within 1 hour after challenge, read-out: ED50, onset of diarrhoea with 1 hour) it was 0.15 mg/kg; in series [3] (liquid stools within 2 hours after challenge, read-out: ED50, onset of diarrhoea with 2 hours), 0.064 mg/kg; in series [3] (liquid stools within 3 hours after challenge, read-out: ED50, onset of diarrhoea with 3 hours) it was 0.049 mg/kg; in series [3] (liquid stools within 4 hours after challenge, read-out: ED50, onset of diarrhoea with 4 hours), 0.032 mg/kg; in series [6] it was over 40 mg/kg. For the same compound, the “ED50 TRY convulsions” value in series [4] (central serotonin antagonistic activity) was over 40 mg/kg. For the same compound, the “ED50 TRY hyperaemia” value in series [4] (peripheral serotonin antagonistic activity) is recorded as 4.7 mg/kg.
For the compound `COc1cc(N)c(Cl)cc1C(=O)N[C@H]1CCNC[C@H]1OC` (stereo in doubt) [Compound 2, (−)-cis-4-amino-5-chloro-2-methoxy-N-(3-methoxy-4-piperidinyl)benzamide], the IC50 at 5-HT3 receptor was found to be 0.45 µM. The EC50 in series [1] is 11 µM; in series [5], 5 µM.
`COc1cc(N)c(Cl)cc1C(=O)NC1CCN(CCCOc2ccc(F)cc2)CC1OC` (stereo not drawn) [cisapride]: the “unchanged cisapride as share of urinary and fecal recovery” value in series [7] was “less than 10%”.
